This is an account of results in article PMC9090415, “Discovery of small molecule inhibitors of Plasmodium falciparum apicoplast DNA polymerase” (Journal of Enzyme Inhibition and Medicinal Chemistry, 2022).

The structures appear in SMILES notation. A value given as a limit tells only on which side of the number the result lay.

As usually defined, the IC50 is the concentration that inhibits the measured activity by half.

The experiment deals with P. falciparum apicoplast DNA polymerase (Pf-apPOL) (Plasmodium falciparum, UniProt Q8ILY1). Put plainly: Fluorescence-based high-throughput DNA polymerase assay (molecular beacon), primary screen and dose-response.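 For % inhibition ApPOL 90': test concentration in µM.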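 For % inhibition apPOL 180': test concentration in µM.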 Format: biochemical. A digest of the protocol:
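Single-point screening used 10 µM compound with 20 nM polymerase, 20 nM hairpin substrate and 6 µM dNTPs for 90 min at 25 °C. Confirmatory titrations (2.5–80 µM) followed fluorescence at three times, and IC50 was derived from a fit including a cooperativity term n.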

Setting [1] is: supplemental file 2, sheet IC50 nontoxic compounds; Pf-apPOL.

Sequence of P. falciparum apicoplast DNA polymerase (Pf-apPOL) (Q8ILY1 entry or part of it): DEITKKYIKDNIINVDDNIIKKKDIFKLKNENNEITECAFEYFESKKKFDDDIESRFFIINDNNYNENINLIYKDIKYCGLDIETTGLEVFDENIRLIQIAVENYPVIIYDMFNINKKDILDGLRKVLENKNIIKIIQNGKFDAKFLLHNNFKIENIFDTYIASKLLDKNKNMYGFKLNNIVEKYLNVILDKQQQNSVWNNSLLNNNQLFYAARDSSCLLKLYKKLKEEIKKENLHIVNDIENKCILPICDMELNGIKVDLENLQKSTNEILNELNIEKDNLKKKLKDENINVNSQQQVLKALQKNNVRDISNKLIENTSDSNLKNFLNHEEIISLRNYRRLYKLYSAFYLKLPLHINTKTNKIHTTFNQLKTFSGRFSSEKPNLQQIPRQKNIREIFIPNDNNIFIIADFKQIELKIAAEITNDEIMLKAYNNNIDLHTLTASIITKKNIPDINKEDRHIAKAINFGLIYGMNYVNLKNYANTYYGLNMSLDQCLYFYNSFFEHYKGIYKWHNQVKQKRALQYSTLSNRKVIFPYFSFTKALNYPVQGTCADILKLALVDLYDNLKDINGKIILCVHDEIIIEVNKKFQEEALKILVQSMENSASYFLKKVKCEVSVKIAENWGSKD

As for `CC1=NNC(=O)C1Oc1ccc(Cl)cc1Cl` (centres unmarked) [KU0265591], the “DNA Pol” value stood at 75 ('DNA Pol'; screening value, unit not given; 90 min, 10 µM) and 75 (primary screen hit value, DNA Pol (186 hits); 90 min, 10 µM). The “% inhibition Apo pol 10'” value is listed as 8.365% (DRC-1; 10'; concentration 2.5); 10.5259% (DRC-1; 10'; concentration 5); 21.6096% (DRC-1; 10'; concentration 10); 39.4478% (DRC-1; 10'; concentration 20); 60.3328% (DRC-1; 10'; concentration 40); 74.8276% (DRC-1; 10'; concentration 80). The “% inhibition Apol 90'” value is listed as -1.52% (DRC-1; 90'; concentration 2.5); -3.728% (DRC-1; 90'; concentration 5); 5.588% (DRC-1; 90'; concentration 10); 19.9514% (DRC-1; 90'; concentration 20); 37.9721% (DRC-1; 90'; concentration 40); 53.1645% (DRC-1; 90'; concentration 80). The “% inhibition apPOL 180'” value runs as follows: (DRC-1; 180'; concentration 2.5) -5.173%; (DRC-1; 180'; concentration 5) -9.633%; (DRC-1; 180'; concentration 10) -1.598%; (DRC-1; 180'; concentration 20) 9.166%; (DRC-1; 180'; concentration 40) 27.6068%; (DRC-1; 180'; concentration 80) 41.8944%. Further, the “% inhibition apPOL 180'” value is -3.43% (DRC-2, 180', concentration 2.5); -6% (DRC-2, 180', concentration 5); -1.09% (DRC-2, 180', concentration 10); 9% (DRC-2, 180', concentration 20); 26% (DRC-2, 180', concentration 40); 42% (DRC-2, 180', concentration 80). Moreover, the “% inhibition apPOL 180'” value is 9% (conc 20 (unit not given); 180'; DRC-2), 26% (conc 40 (unit not given); 180'; DRC-2) and 42% (conc 80 (unit not given); 180'; DRC-2). The “% inhibition Apo pol 5'” value by setting is: (DRC-2, 5', concentration 2.5) 10%; (DRC-2, 5', concentration 5) 12%; (DRC-2, 5', concentration 10) 24%; (DRC-2, 5', concentration 20) 32%; (DRC-2, 5', concentration 40) 45%; (DRC-2, 5', concentration 80) 52%. Moreover, the “% inhibition Apol 40'” value (DRC-2, 40', concentration 2.5) was found to be 5%; the “% inhibition Apol 40'” value (DRC-2, 40', concentration 5) amounted to 4.74%; the “% inhibition Apol 40'” value (DRC-2, 40', concentration 10) is listed as 15%; the “% inhibition Apol 40'” value (DRC-2, 40', concentration 20) is 26%; the “% inhibition Apol 40'” value (DRC-2, 40', concentration 40) was found to be 42%; the “% inhibition Apol 40'” value (DRC-2, 40', concentration 80) came to 53%. Besides, the “% inhibition Apol 40'” value was found to be 26% (conc 20 (unit not given); 40'; DRC-2) and 42% (conc 40 (unit not given); 40'; DRC-2). In addition, the “% inhibition ApPOL 90'” value reads like this: (DRC-2, 90', concentration 2.5) 1.69%; (DRC-2, 90', concentration 5) -0.164%; (DRC-2, 90', concentration 10) 9%; (DRC-2, 90', concentration 20) 20%; (DRC-2, 90', concentration 40) 37%; (DRC-2, 90', concentration 80) 51%. Further, where the note is “conc 10 (unit not given); 90'; DRC-2”, the “% inhibition ApPOL 90'” value turned out to be 9%.
Turning to `CCCCSc1nnc2c(n1)OC(c1ccc([N+](=O)[O-])o1)Nc1ccccc1-2` (centres unmarked) [KU0065811], the “% inhibition Apo pol 10'” value reads like this: (DRC-1; 10'; concentration 2.5) 24.76%; (DRC-1; 10'; concentration 5) 28.8752%; (DRC-1; 10'; concentration 10) 64.0477%; (DRC-1; 10'; concentration 20) 79.0403%; (DRC-1; 10'; concentration 40) 87.9065%; (DRC-1; 10'; concentration 80) 83.2493%. The “% inhibition Apol 90'” value (DRC-1; 90'; concentration 2.5) is on record as 16.1067%; the “% inhibition Apol 90'” value (DRC-1; 90'; concentration 5) was found to be 15.8932%; the “% inhibition Apol 90'” value (DRC-1; 90'; concentration 10) is on record as 47.3098%; the “% inhibition Apol 90'” value (DRC-1; 90'; concentration 20) amounted to 63.8014%; the “% inhibition Apol 90'” value (DRC-1; 90'; concentration 40) stood at 80.4903%; the “% inhibition Apol 90'” value (DRC-1; 90'; concentration 80) stood at 83.7363%. For the same compound, the “% inhibition apPOL 180'” value was determined as 8.192% (DRC-1; 180'; concentration 2.5); 3.59% (DRC-1; 180'; concentration 5); 30.0435% (DRC-1; 180'; concentration 10); 48.0622% (DRC-1; 180'; concentration 20); 73.3106% (DRC-1; 180'; concentration 40); 82.0141% (DRC-1; 180'; concentration 80). For the same compound, the “% inhibition apPOL 180'” value amounted to 11% (DRC-2; 180'; concentration 2.5); 19% (DRC-2; 180'; concentration 5); 41% (DRC-2; 180'; concentration 10); 53% (DRC-2; 180'; concentration 20); 64% (DRC-2; 180'; concentration 40); 58% (DRC-2; 180'; concentration 80). Besides, the “% inhibition Apol 40'” value reads like this: (DRC-2, 40', concentration 5 (unit not given)) 36%; (DRC-2, 40', concentration 20 (unit not given)) 59%; (DRC-2; 40'; concentration 2.5) 25%; (DRC-2; 40'; concentration 5) 36%; (DRC-2; 40'; concentration 10) 55%; (DRC-2; 40'; concentration 20) 59%. For the same compound, the “% inhibition Apol 40'” value by setting is: (DRC-2; 40'; concentration 40) 57%; (DRC-2; 40'; concentration 80) 42%. Besides, the “% inhibition ApPOL 90'” value is on record as 59% (DRC-2, 90', concentration 20 (unit not given)); 22% (DRC-2; 90'; concentration 2.5); 32% (DRC-2; 90'; concentration 5); 52% (DRC-2; 90'; concentration 10); 59% (DRC-2; 90'; concentration 20); 62% (DRC-2; 90'; concentration 40). In addition, where the note is “DRC-2; 90'; concentration 80”, the “% inhibition ApPOL 90'” value was 50%. Also, the “% inhibition Apo pol 5'” value (DRC-2; 5'; concentration 2.5) is recorded as 27%; the “% inhibition Apo pol 5'” value (DRC-2; 5'; concentration 5) stood at 36%; the “% inhibition Apo pol 5'” value (DRC-2; 5'; concentration 5 (unit not given)) is 36%; the “% inhibition Apo pol 5'” value (DRC-2; 5'; concentration 10) is recorded as 51%; the “% inhibition Apo pol 5'” value (DRC-2; 5'; concentration 20) was found to be 47%; the “% inhibition Apo pol 5'” value (DRC-2; 5'; concentration 40) came to 37%. The “% inhibition Apo pol 5'” value (DRC-2; 5'; concentration 80) is listed as 13%. Also, the “DNA Pol” value by setting is: (primary screen value of the 186 hits; unit not given; 90 min, 10 µM) 52; (primary screen value, head "DNA Pol", unit not given; 90 min, 10 µM) 52.
In the case of `C=CC1=C(C)c2cc3[nH]c(cc4nc(cc5[nH]c(cc1n2)c(C)c5CCC(=O)O)C(CCC(=O)O)=C4C)c(C)c3C=C` [Molecule 91], the IC50 under setting [1] is less than 2.5 µM.
The same measure, in the same setting: the result for `Cc1ccc(C)c(CSc2nc(C3CCCCC3)c(C#N)c(=O)[nH]2)c1` [Molecule 6] reads 6.42 µM; that for `Cc1cccc(CC(=O)N2CCc3c(nc4cc(-c5ccccc5)[nH]n4c3=O)C2)c1` [Molecule 12], 5.56 µM.
